Experimental data published in PMC7067379, “Mapping the S1 and S1’ subsites of cysteine proteases with new dipeptidyl nitrile inhibitors as trypanocidal agents” (PLoS Neglected Tropical Diseases, 2020).
Where two headings read alike, the source gives them in different places.

Experiments:
cathepsin B (CatB) = cathepsin B (CatB) (Homo sapiens, UniProt P07858); assay: Cathepsin B enzyme inhibition; format: biochemical; conditions: for Ki: SD lower than 15%, read-out: pKi CatB (converted)
[1] = target: T1, Human recombinant cathepsin K (Homo sapiens, UniProt P43235); assay: Cathepsin K assay; format: biochemical; conditions: for Ki: SD lower than 15%, read-out: pKi CatK (converted); for remaining activity at 10 µM: replicates = 2, n.i. = no inhibition observed at 10 μM, read-out: remaining activity (%) at 10 μM, CatK
T1 sequence (P43235 115-329): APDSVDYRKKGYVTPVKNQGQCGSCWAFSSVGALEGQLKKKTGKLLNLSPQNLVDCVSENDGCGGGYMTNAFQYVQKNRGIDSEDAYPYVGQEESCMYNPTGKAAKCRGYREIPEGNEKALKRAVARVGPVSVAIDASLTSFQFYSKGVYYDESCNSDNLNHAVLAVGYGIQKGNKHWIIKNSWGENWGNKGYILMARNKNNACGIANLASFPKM
Procedure: Human recombinant cathepsin K was assayed on a FLUOSTAR Optima plate reader at 25 °C with an excitation wavelength of 360 nm and an emission wavelength of 440 nm on a 96 well plate. The enzyme solution (23 μg/mL in 50 mM sodium acetate pH 5.5, 50 mM NaCl, 0.5 mM EDTA, 5 mM DTT) was diluted 1:100 with assay buffer (100 mM sodium citrate buffer pH 5.0, 100 mM NaCl, 1 mM EDTA, 0.01% CHAPS) containing 5 mM DTT and was then incubated at 37 °C for 30 min for activation. A 1.5 mM stock solution of the substrate Z-Leu-Arg-AMC was prepared in DMSO. […] The assay was performed with a final concentration of cathepsin K of 1.73 ng/mL. Stock solutions of inhibitors were prepared in DMSO. The final DMSO concentration was 2% (4 μL). Into a well containing 194.5 μL assay buffer, 0.8 μL of the fluorogenic substrate, DMSO and inhibitor solution (3.2 μL) were added. Upon addition of cathepsin K (1.5 μL), the measurement was started and followed for 20 min.

cathepsin L (CatL) = cathepsin L (CatL) (Homo sapiens, UniProt P07711); assay: Cathepsin L enzyme inhibition; format: biochemical; conditions: SD lower than 15%; read-out: pKi CatL (converted)
Chain of cathepsin L (CatL) (P07711 114-333): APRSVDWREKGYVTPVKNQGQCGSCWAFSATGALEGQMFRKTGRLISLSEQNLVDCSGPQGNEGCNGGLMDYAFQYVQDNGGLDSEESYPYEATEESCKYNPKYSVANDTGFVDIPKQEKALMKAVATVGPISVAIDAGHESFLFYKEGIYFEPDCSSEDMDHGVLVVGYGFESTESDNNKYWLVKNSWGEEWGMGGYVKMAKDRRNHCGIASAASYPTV

cathepsin S (CatS) = cathepsin S (CatS) (Homo sapiens, UniProt P25774); assay: Cathepsin S enzyme inhibition; format: biochemical; conditions: SD lower than 15%; read-out: pKi CatS (converted)
Chain of cathepsin S (CatS) (P25774 115-331): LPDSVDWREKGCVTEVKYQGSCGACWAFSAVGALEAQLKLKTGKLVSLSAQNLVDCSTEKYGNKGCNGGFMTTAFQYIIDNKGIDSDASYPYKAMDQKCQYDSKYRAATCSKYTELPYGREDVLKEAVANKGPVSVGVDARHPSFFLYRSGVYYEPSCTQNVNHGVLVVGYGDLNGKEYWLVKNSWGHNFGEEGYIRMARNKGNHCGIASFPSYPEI
Procedure: (§1) Enzyme inhibition studies for Cz and LmCPB were performed as previously described for Cz. The experimental procedures are described in the Supporting Information (see chapter S3). Cathepsins B, L, S were assayed as reported.

recombinant cruzain (Cz) = recombinant cruzain (Cz) (Trypanosoma cruzi, UniProt P25779); assay: Cruzain enzyme inhibition; format: biochemical
Chain of recombinant cruzain (Cz) (P25779 123-337): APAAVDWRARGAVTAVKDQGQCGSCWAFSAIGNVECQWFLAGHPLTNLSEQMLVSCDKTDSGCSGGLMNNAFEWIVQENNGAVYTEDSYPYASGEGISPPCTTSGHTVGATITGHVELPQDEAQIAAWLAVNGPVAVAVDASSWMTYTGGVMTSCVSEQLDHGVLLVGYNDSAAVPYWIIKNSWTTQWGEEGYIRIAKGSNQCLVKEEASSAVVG
Procedure: as §1

[2] = target: Leishmania mexicana CPB (LmCPB) (Leishmania mexicana, UniProt P36400); assay: LmCPB enzyme inhibition; format: biochemical
Chain of Leishmania mexicana CPB (LmCPB) (P36400 126-443): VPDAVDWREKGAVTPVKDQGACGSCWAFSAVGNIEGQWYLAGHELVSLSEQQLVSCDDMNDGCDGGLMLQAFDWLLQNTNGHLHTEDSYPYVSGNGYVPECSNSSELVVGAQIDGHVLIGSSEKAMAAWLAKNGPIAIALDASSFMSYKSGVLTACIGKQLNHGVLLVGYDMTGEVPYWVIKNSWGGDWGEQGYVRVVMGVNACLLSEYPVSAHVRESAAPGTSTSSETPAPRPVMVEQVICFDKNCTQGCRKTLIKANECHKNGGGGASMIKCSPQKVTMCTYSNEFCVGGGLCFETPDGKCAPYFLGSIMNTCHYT
Procedure: as §1

[3] = system: T. cruzi Tulahuen LacZ strain, intracellular amastigote forms; assay: In vitro trypanocidal activity on intracellular amastigote forms (Tulahuen strain); format: cell-based, Trypanosoma cruzi; conditions: for EC50: Trypanosoma cruzi, TULAHUEN; for SI (selective index): from EC50 (T. cruzi) and CC50 (LLCMK2)
Procedure: Cells were evaluated in 96-well plates. Cells from the LLCMK2 lineage were plated at a concentration of 5x10^4 cells mL^-1. Trypomastigote forms of the Tulahuen LacZ strain were added at a concentration of 5×10^5 parasites mL^-1 and placed in the incubator at 37°C with 5% CO2 for 24 h. After the incubation period, the trypomastigote forms present were removed by successive washes with PBS, remaining only as intracellular amastigote forms. Compounds were added at different concentrations (1.95 μM to 250 μM serial dilutions) and incubated for 72 h. At the end of this period, the substrate CPRG (chlorophenol red β-D-galactopyranoside, 400 μM in 0.3% Triton X-100, pH 7.4) was added. […] Benznidazole was used as a positive control in the same concentrations as the substances, and DMSO as a negative control. Compounds were solubilized in DMSO. The selectivity index (SI) was calculated using the formula: […]. All statistical analyses were done with the program GraphPad Prism v.5.

[4] = Mammalian cytotoxicity assay (MTT); format: cell-based; conditions: rhesus monkey, LLCMK2 cells;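 also: Read-out is absorbance at 570 nm of formazan taken up in DMSO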
[5] = SD lower than 15%, read-out: pKi Cz (converted)
[6] = SD lower than 15%, read-out: pKi LmCPB (converted)
[7] = 72 h, amastigote, Tulahuen strain, 72 h, Table 2, read-out: EC50 trypanocidal activity
[8] = read-out: pEC50, T. cruzi amastigote form (converted), S1 Table
[9] = LLCMK2, 72 h, MTT, Table 2, read-out: CC50 cytotoxicity
[10] = read-out: EC50 T. cruzi, S1 Table, maximum concentration used 250 µM
[11] = S1 Table, maximum concentration used 250 µM, read-out: CC50
[12] = S1 Table, maximum concentration used 250 µM, read-out: EC50 T. cruzi
[13] = T. cruzi amastigote form, S1 Table, read-out: pEC50 (converted)

Row | SMILES | Ki [1] | Ki (cathepsin L (CatL)) | Ki (cathepsin S (CatS)) | Ki (recombinant cruzain (Cz); [5]) | Ki [2, 6] | EC50 [3, 7] | EC50 [3, 8] | SI (selective index) ([3]; Table 2) | CC50 at 72 h [4, 9] | Ki (cathepsin B (CatB)) | CC50 at 72 h [4, 11] | EC50 [3, 13] | other results
1 | Cn1nc(C(C)(C)C)cc1C(=O)N[C@@H](Cc1ccncc1)C(=O)NC1(C#N)CC1 [Compound 10, (S)-3-(tert-Butyl)-N-(1-((1-cyanocyclopropyl)amino)-1-oxo-3-(pyridin-4-yl)propan-2-yl)-1-methyl-1H-pyrazole-5-carboxamide] | 10000 nM | 25.1 nM | 2510 nM | 251 nM | 398 nM | 67600 ± 8220 nM | 63100 nM | > 1.5 | > 100000 nM |  |  |  | remaining activity at 10 µM (cathepsin B (CatB); 10 μM, replicates = 2, n.i. = no inhibition observed at 10 μM): 93%
2 | CC(C)C[C@H](NC(=O)c1cc(C(C)(C)C)nn1C)C(=O)NC1(C#N)CC1 [Compound 11] | 5.01 nM | 25.1 nM | 39.8 nM | 15.8 nM | 50.1 nM |  | > 100000 nM |  |  | 31600 nM | > 100000 nM |  | difference in pKi, Cz (recombinant cruzain (Cz); relative to compound 9, sign not given, direction by cell colour or wording): 0.5; EC50 [3, 10]: > 100000 nM
3 | C[C@@H](OCc1ccccc1)[C@H](NC(=O)c1cc(C(C)(C)C)nn1C)C(=O)NC1(C#N)CC1 [Compound 12, N-((2S,3R)-3-(Benzyloxy)-1-((1-cyanocyclopropyl)amino)-1-oxobutan-2-yl)-3-(tert-butyl)-1-methyl-1H-pyrazole-5-carboxamide] |  | 1260 nM | 1260 nM | 7940 nM | 3160 nM | 32700 ± 3860 nM | 31600 nM | > 3.1 | > 100000 nM | 39800 nM |  |  | remaining activity at 10 µM [1]: 96%; melting point: 100 to 101 °C
4 | N#CC1(NC(=O)[C@H](Cc2ccccc2)NC(=O)c2ccnc3cc(Cl)ccc23)CC1 [Compound 13, (S)-7-Chloro-N-(1-((1-cyanocyclopropyl)amino)-1-oxo-3-phenylpropan-2-yl)quinoline-4-carboxamide] |  | 63.1 nM | 200 nM |  |  |  | > 100000 nM |  |  | 12600 nM | > 100000 nM |  | remaining activity at 10 µM [1]: 81%; Ki (recombinant cruzain (Cz)): 200 nM; Ki [2]: 126 nM; EC50 [3, 10]: > 100000 nM; melting point: 260 to 262 °C
5 | Cn1nc(C(C)(C)C)cc1C(=O)N[C@@H](Cc1ccccc1)C(=O)N[C@H](C#N)Cc1ccncc1 [Compound 55, 3-(tert-Butyl)-N-((S)-1-(((S)-1-cyano-2-(pyridin-4-yl)ethyl)amino)-1-oxo-3-phenylpropan-2-yl)-1-methyl-1H-pyrazole-5-carboxamide] | 316 nM | 5.01 nM | 63.1 nM |  |  |  |  |  |  | 15800 nM | > 100000 nM | > 100000 nM | Ki (recombinant cruzain (Cz)): 31.6 nM; Ki [2]: 63.1 nM; EC50 [3, 12]: > 100000 nM
6 | C[C@@H](OCc1ccccc1)[C@@H](C#N)NC(=O)[C@H](Cc1cccc(Cl)c1)NC(=O)c1cc(C(C)(C)C)nn1C [Compound 60, N-((S)-1-(((1R,2R)-2-(Benzyloxy)-1-cyanopropyl)amino)-3-(3-chlorophenyl)-1-oxopropan-2-yl)-3-(tert-butyl)-1-methyl-1H-pyrazole-5-carboxamide] | 1000 nM | 7.94 nM | 316 nM | 63.1 nM | 158 nM | 4900 ± 450 nM |  | > 20 | > 100000 nM | 501 nM | 125000 nM | 5010 nM | fold increase in trypanocidal potency ([3]; compared with compound 9): 14.5 fold
7 | C[C@@H](O)[C@@H](C#N)NC(=O)[C@H](Cc1cccc(Cl)c1)NC(=O)c1cc(C(C)(C)C)nn1C [Compound 69, 3-(tert-butyl)-N-((S)-3-(3-chlorophenyl)-1-(((1R,2R)-1-cyano-2-hydroxypropyl)amino)-1-oxopropan-2-yl)-1-methyl-1H-pyrazole-5-carboxamide] | 794 nM | 6.31 nM | 251 nM | 126 nM | 1000 nM | 30600 ± 3110 nM |  |  | > 100000 nM | 6310 nM |  | 31600 nM | EC50 [3, 12]: 30500 nM
